# Read-outs that look alike come from different tables or passages of the source.
# Assays:
# Assay in all cases: biochemical
# Type in all cases: binding
# [1] = target: panel of 468 diverse kinases (Homo sapiens, UniProt O00750); settings: PIK3C2B; 1000 nM; read-out: Percent Control
# [2] = target: panel of 468 diverse kinases (Homo sapiens, UniProt O43318); settings: TAK1; 1000 nM; read-out: Percent Control
# [3] = target: panel of 468 diverse kinases (Homo sapiens, UniProt O43683); settings: BUB1; 1000 nM; read-out: Percent Control
# [4] = target: panel of 468 diverse kinases (Homo sapiens, UniProt O60331); settings: PIP5K1C; 1000 nM; read-out: Percent Control
# [5] = target: panel of 468 diverse kinases (Homo sapiens, UniProt O75716); settings: STK16; 1000 nM; read-out: Percent Control
# [6] = target: panel of 468 diverse kinases (Homo sapiens, UniProt O95382); settings: ASK2; 1000 nM; read-out: Percent Control
# [7] = target: panel of 468 diverse kinases (Homo sapiens, UniProt O96017); settings: CHEK2; 1000 nM; read-out: Percent Control
# [8] = target: panel of 468 diverse kinases (Homo sapiens, UniProt P00533, DEL752-759); settings: EGFR(S752-I759del); 1000 nM; read-out: Percent Control
# Sequence of panel of 468 diverse kinases (Homo sapiens, UniProt P00533, DEL752-759) (P00533 with tags, fused parts or gaps DEL752-759 limits assumed): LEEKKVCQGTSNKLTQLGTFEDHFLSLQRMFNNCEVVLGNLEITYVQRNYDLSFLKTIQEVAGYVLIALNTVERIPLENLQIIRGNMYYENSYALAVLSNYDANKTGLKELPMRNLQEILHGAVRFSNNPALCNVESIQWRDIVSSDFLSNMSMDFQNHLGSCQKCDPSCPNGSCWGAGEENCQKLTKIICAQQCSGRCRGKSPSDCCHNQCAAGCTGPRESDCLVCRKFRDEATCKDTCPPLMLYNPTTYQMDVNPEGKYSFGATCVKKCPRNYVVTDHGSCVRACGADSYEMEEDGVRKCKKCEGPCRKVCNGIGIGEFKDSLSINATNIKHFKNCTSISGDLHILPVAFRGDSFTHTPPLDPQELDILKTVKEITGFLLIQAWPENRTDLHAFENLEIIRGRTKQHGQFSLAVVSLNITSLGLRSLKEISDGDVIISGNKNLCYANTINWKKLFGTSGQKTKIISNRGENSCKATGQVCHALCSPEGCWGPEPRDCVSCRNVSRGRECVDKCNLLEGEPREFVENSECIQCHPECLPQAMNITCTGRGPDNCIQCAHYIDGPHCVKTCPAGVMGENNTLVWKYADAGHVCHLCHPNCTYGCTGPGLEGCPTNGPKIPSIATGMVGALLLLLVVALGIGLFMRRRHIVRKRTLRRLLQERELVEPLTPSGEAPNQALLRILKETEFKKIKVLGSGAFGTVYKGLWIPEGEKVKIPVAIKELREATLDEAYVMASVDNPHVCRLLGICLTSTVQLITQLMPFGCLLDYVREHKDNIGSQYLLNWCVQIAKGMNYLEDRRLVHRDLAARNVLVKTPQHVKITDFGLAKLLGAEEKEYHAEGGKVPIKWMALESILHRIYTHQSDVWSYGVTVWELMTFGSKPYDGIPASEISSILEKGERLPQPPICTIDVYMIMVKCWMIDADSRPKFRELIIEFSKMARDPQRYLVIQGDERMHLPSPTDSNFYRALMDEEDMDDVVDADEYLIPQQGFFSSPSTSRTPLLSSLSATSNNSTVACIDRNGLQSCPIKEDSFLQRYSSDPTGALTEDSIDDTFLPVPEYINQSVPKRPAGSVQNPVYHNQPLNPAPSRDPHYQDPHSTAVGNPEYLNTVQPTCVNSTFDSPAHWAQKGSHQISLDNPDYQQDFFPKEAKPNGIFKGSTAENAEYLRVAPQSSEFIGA
# [9] = target: panel of 468 diverse kinases (Homo sapiens, UniProt P04629); settings: TRKA; 1000 nM; read-out: Percent Control
# [10] = target: panel of 468 diverse kinases (Homo sapiens, UniProt P06241); settings: FYN; 1000 nM; read-out: Percent Control
# Sequence of panel of 468 diverse kinases (Homo sapiens, UniProt P06241) (P06241 2-537 limits assumed): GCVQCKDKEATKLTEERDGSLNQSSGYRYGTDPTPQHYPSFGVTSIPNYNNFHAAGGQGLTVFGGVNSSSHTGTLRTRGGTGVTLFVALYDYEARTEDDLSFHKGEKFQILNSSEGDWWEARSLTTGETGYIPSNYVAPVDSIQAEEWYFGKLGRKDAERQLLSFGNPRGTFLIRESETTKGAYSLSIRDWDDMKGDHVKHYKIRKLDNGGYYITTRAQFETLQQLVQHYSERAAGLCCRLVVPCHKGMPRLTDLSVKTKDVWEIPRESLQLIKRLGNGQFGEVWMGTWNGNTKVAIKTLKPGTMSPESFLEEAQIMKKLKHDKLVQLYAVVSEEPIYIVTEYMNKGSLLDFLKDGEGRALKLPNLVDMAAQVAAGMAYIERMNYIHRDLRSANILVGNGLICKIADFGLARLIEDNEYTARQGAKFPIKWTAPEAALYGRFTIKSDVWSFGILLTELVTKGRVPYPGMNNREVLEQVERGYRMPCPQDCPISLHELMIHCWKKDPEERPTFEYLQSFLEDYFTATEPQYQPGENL
# [11] = target: panel of 468 diverse kinases (Homo sapiens, UniProt P08581, Y1235D); settings: MET(Y1235D); 1000 nM; read-out: Percent Control
# Sequence of panel of 468 diverse kinases (Homo sapiens, UniProt P08581, Y1235D) (P08581 25-1390 Y1235D limits assumed): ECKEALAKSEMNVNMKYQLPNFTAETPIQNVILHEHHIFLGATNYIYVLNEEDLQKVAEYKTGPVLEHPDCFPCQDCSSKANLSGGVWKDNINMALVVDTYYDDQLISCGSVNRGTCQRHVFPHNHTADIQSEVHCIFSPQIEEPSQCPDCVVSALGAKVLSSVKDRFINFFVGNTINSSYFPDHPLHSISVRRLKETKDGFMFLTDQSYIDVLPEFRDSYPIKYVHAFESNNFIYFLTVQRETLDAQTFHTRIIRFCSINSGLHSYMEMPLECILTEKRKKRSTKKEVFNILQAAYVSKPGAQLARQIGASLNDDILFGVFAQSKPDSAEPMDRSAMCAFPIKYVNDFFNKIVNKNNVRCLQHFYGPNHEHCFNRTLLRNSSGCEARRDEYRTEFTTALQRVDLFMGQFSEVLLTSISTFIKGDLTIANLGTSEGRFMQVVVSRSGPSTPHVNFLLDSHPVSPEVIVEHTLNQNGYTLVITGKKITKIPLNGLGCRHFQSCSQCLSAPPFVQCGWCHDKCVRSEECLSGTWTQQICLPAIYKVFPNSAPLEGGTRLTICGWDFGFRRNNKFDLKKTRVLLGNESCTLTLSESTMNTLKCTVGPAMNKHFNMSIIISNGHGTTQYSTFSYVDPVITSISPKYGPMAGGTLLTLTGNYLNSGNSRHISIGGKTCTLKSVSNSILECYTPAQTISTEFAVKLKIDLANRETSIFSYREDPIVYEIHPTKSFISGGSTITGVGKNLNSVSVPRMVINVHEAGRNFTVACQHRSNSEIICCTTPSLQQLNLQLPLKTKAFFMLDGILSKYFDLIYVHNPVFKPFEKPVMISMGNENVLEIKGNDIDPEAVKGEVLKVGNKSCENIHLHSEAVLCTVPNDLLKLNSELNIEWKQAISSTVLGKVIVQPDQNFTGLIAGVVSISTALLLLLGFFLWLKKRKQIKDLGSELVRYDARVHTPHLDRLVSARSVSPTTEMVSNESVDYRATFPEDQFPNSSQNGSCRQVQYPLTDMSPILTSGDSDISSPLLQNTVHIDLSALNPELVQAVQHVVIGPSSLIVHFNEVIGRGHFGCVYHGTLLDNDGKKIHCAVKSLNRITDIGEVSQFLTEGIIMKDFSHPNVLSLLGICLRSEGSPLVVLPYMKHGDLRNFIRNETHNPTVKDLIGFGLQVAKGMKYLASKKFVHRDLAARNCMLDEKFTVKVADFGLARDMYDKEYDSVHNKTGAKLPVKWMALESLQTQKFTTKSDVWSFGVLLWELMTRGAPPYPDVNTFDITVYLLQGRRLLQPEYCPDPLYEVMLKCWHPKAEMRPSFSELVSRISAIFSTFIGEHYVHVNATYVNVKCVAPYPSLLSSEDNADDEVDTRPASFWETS
# [12] = target: panel of 468 diverse kinases (Homo sapiens, UniProt P0C264); settings: SgK110; 1000 nM; read-out: Percent Control
# [13] = target: panel of 468 diverse kinases (Homo sapiens, UniProt P21709); settings: EPHA1; 1000 nM; read-out: Percent Control
# Sequence of panel of 468 diverse kinases (Homo sapiens, UniProt P21709) (P21709 26-976 limits assumed): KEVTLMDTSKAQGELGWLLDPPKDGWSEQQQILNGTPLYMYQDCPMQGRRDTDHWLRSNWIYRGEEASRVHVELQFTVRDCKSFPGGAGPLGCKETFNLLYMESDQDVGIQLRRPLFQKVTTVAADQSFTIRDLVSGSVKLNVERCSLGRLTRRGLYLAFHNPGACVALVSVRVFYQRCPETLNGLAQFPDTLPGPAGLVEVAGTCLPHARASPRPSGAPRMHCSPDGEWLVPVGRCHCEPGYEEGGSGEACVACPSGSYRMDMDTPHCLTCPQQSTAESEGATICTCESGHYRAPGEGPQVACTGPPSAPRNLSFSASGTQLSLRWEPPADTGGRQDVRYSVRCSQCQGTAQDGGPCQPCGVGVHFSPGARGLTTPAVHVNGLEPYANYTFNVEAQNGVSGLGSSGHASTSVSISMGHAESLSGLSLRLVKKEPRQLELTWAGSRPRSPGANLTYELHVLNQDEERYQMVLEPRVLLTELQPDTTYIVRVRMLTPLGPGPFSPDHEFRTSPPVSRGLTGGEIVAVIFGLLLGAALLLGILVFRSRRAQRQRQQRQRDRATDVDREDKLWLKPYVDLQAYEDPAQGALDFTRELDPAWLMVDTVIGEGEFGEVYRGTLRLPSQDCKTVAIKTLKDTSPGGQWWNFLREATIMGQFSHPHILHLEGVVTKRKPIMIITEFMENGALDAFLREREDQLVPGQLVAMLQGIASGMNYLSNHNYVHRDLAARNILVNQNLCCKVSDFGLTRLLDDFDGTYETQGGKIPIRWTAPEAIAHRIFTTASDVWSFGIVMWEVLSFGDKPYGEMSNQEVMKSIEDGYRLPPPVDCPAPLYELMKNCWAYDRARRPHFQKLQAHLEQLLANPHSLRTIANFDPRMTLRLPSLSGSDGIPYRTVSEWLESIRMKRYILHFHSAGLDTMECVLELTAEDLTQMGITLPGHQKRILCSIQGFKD
# [14] = target: panel of 468 diverse kinases (Homo sapiens, UniProt P29317); settings: EPHA2; 1000 nM; read-out: Percent Control
# [15] = target: panel of 468 diverse kinases (Homo sapiens, UniProt P29376); settings: LTK; 1000 nM; read-out: Percent Control
# [16] = target: panel of 468 diverse kinases (Homo sapiens, UniProt P41240); settings: CSK; 1000 nM; read-out: Percent Control
# [17] = target: panel of 468 diverse kinases (Homo sapiens, UniProt P42336, H1047Y); settings: PIK3CA(H1047Y); 1000 nM; read-out: Percent Control
# [18] = target: panel of 468 diverse kinases (Homo sapiens, UniProt P43403); settings: ZAP70; 1000 nM; read-out: Percent Control
# [19] = target: panel of 468 diverse kinases (Homo sapiens, UniProt P54764); settings: EPHA4; 1000 nM; read-out: Percent Control
# Sequence of panel of 468 diverse kinases (Homo sapiens, UniProt P54764) (P54764 20-986 limits assumed): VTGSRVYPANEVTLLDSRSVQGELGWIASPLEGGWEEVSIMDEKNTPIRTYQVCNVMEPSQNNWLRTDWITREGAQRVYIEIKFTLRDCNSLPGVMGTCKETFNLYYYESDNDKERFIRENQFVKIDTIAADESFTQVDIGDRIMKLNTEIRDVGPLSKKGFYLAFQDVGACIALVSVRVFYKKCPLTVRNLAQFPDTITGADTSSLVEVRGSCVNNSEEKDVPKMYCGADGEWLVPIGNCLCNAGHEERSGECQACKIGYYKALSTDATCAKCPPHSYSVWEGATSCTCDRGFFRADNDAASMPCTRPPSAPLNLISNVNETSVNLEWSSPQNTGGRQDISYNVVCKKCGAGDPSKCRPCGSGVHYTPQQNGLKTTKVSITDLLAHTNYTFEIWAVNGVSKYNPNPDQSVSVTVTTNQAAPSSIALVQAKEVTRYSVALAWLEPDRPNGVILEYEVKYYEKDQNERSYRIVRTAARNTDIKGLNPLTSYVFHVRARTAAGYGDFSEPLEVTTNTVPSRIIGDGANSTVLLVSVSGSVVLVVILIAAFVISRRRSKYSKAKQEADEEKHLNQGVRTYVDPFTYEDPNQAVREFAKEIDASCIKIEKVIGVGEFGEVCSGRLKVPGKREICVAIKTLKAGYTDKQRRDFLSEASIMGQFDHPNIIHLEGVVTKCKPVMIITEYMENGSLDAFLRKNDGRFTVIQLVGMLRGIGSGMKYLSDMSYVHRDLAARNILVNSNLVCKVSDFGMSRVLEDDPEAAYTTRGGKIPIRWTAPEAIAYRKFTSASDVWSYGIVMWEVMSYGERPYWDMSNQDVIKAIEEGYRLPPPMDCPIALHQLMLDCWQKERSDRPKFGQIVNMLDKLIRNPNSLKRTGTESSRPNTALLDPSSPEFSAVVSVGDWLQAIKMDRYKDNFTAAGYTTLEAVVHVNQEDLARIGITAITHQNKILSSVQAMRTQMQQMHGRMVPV
# [20] = target: panel of 468 diverse kinases (Homo sapiens, UniProt P78368); settings: CSNK1G2; 1000 nM; read-out: Percent Control
# [21] = target: panel of 468 diverse kinases (Homo sapiens, UniProt Q16584); settings: MLK3; 1000 nM; read-out: Percent Control
# [22] = target: panel of 468 diverse kinases (Homo sapiens, UniProt Q56UN5); settings: YSK4; 1000 nM; read-out: Percent Control
# [23] = target: panel of 468 diverse kinases (Homo sapiens, UniProt Q7KZI7); settings: MARK2; 1000 nM; read-out: Percent Control
# [24] = target: panel of 468 diverse kinases (Homo sapiens, UniProt Q8N568); settings: DCAMKL2; 1000 nM; read-out: Percent Control
# [25] = target: panel of 468 diverse kinases (Homo sapiens, UniProt Q9BX84); settings: TRPM6; 1000 nM; read-out: Percent Control
# [26] = target: panel of 468 diverse kinases (Homo sapiens, UniProt Q9H4A3); settings: WNK1; 1000 nM; read-out: Percent Control
# [27] = target: panel of 468 diverse kinases (Homo sapiens, UniProt Q9P2K8, S808G); settings: GCN2(Kin.Dom.2, S808G); 1000 nM; read-out: Percent Control
# [28] = target: panel of 468 diverse kinases (Homo sapiens, UniProt Q9UK32); settings: 1000 nM, read-out: Percent Control
# [29] = target: panel of 468 diverse kinases (Homo sapiens, UniProt Q9UQ88); settings: CDC2L2; 1000 nM; read-out: Percent Control
# [30] = target: panel of 468 diverse kinases (Homo sapiens, UniProt Q9Y6E0); settings: MST3; 1000 nM; read-out: Percent Control
smiles,measurement,setting,value
COc1cc2nc(NC3CC3)nc(NC3CCN(C(C)C)CC3)c2cc1OC [Formula IV],remaining activity at 1 µM,[1],87%
same,remaining activity at 1 µM,[2],84%
same,remaining activity at 1 µM,[3],63%
same,remaining activity at 1 µM,[4],100%
same,remaining activity at 1 µM,[5],83%
same,remaining activity at 1 µM,[6],93%
same,remaining activity at 1 µM,[7],100%
same,remaining activity at 1 µM,[8],100%
same,remaining activity at 1 µM,[9],67%
same,remaining activity at 1 µM,[10],100%
same,remaining activity at 1 µM,[11],93%
same,remaining activity at 1 µM,[12],97%
same,remaining activity at 1 µM,[13],100%
same,remaining activity at 1 µM,[14],100%
same,remaining activity at 1 µM,[15],82%
same,remaining activity at 1 µM,[16],98%
same,remaining activity at 1 µM,[17],91%
same,remaining activity at 1 µM,[18],91%
same,remaining activity at 1 µM,[19],100%
same,remaining activity at 1 µM,[20],86%
same,remaining activity at 1 µM,[21],93%
same,remaining activity at 1 µM,[22],78%
same,remaining activity at 1 µM,[23],100%
same,remaining activity at 1 µM,[24],90%
same,remaining activity at 1 µM,[25],90%
same,remaining activity at 1 µM,[26],59%
same,remaining activity at 1 µM,[27],94%
same,remaining activity at 1 µM,[28]; RSK4(Kin.Dom.1-N-terminal),92%
same,remaining activity at 1 µM,[28]; RSK4(Kin.Dom.2-C-terminal),82%
same,remaining activity at 1 µM,[29],99%
same,remaining activity at 1 µM,[30],96%

# From patent publication US11542240B2, “STK19 inhibitors for treatment of cancer” (TRUSTEES OF BOSTON UNIVERSITY, priority 2018, dated 2023)
